Measurements published in ChEMBL document CHEMBL6092192 (J Med Chem, 2024).
The source made the active and inactive calls. The rule behind the calls is not given here.

Tests used:
SW620/AD300 [1] = assay: Cytotoxicity against multidrug resistant human SW620/AD300 cells assessed as survival rate at 4 uM measured after 72 hrs by MTT assay relative to control; format: functional; details: read-out: Survival
SW-620 [2] = assay: Reversal of paclitaxel resistance in human SW620 cells assessed as reversal fold by measuring ratio of paclitaxel IC50 to paclitaxel IC50 in presence of test compound at 4 uM incubated for 72 hrs by MTT assay; format: functional
SW-620 [3] = assay: Cytotoxicity against human SW620 cells assessed as survival rate at 4 uM measured after 72 hrs by MTT assay relative to control; format: functional; details: read-out: Survival
SW620/AD300 [4] = assay: Cytotoxicity against multidrug resistant human SW620/AD300 cells assessed as survival rate at 2 uM measured after 72 hrs by MTT assay relative to control; format: functional; details: read-out: Survival
KB-C2 = assay: Reversal of paclitaxel resistance in human KB-C2 cells assessed as reversal fold by measuring ratio of paclitaxel IC50 to paclitaxel IC50 in presence of test compound at 4 uM incubated for 72 hrs by MTT assay; format: functional
KB 3-1 = assay: Reversal of paclitaxel resistance in human KB 3-1 cells assessed as reversal fold by measuring ratio of paclitaxel IC50 to paclitaxel IC50 in presence of test compound at 2 uM incubated for 72 hrs by MTT assay; format: functional
[5] = Reversal of paclitaxel resistance in HEK293 cells transfected with pcDNA3.1 assessed as reversal fold by measuring ratio of paclitaxel IC50 to paclitaxel IC50 in presence of test compound at 2 uM incubated for 72 hrs by MTT assay; format: functional, Homo sapiens
HEK293 [6] = assay: Cytotoxicity against HEK293 cells transfected with pcDNA3.1 assessed as survival rate at 5 uM measured after 72 hrs by MTT assay relative to control; format: functional; details: Homo sapiens, read-out: Survival
[7] = Reversal of paclitaxel resistance in HEK293 cells harbouring ABCB1 assessed as reversal fold by measuring ratio of paclitaxel IC50 to paclitaxel IC50 in presence of test compound at 4 uM incubated for 72 hrs by MTT assay; format: functional, Homo sapiens
HEK293 [8] = assay: Cytotoxicity against HEK293 cells harbouring ABCB1 assessed as survival rate at 2 uM measured after 72 hrs by MTT assay relative to control; format: functional; details: Homo sapiens, read-out: Survival
[9] = MRT (0 to t) in 12 hrs fasted Sprague-Dawley rat at 1 mg/kg, iv measured upto 720 mins by HPLC-MS/MS analysis; format: ADME, organism-based; details: in vivo
[10] = Half life in 12 hrs fasted Sprague-Dawley rat at 10 mg/kg, po measured upto 720 mins by HPLC-MS/MS analysis; format: ADME, organism-based; details: in vivo
[11] = Cmax in 12 hrs fasted Sprague-Dawley rat at 10 mg/kg, po measured upto 720 mins by HPLC-MS/MS analysis; format: ADME, organism-based; details: in vivo
[12] = AUC (0 to t) in 12 hrs fasted Sprague-Dawley rat at 10 mg/kg, po measured upto 720 mins by HPLC-MS/MS analysis; format: ADME, organism-based; details: in vivo
hERG (KCNH2) = hERG (KCNH2) (Homo sapiens, UniProt Q12809); assay: Inhibition of human ERG expressed in CHO cells at 40 uM by QPatch assay relative to control; format: toxicity, cell-based; details: CHO cells expressing human ERG
hERG (KCNH2), sequence (Q12809 whole entry): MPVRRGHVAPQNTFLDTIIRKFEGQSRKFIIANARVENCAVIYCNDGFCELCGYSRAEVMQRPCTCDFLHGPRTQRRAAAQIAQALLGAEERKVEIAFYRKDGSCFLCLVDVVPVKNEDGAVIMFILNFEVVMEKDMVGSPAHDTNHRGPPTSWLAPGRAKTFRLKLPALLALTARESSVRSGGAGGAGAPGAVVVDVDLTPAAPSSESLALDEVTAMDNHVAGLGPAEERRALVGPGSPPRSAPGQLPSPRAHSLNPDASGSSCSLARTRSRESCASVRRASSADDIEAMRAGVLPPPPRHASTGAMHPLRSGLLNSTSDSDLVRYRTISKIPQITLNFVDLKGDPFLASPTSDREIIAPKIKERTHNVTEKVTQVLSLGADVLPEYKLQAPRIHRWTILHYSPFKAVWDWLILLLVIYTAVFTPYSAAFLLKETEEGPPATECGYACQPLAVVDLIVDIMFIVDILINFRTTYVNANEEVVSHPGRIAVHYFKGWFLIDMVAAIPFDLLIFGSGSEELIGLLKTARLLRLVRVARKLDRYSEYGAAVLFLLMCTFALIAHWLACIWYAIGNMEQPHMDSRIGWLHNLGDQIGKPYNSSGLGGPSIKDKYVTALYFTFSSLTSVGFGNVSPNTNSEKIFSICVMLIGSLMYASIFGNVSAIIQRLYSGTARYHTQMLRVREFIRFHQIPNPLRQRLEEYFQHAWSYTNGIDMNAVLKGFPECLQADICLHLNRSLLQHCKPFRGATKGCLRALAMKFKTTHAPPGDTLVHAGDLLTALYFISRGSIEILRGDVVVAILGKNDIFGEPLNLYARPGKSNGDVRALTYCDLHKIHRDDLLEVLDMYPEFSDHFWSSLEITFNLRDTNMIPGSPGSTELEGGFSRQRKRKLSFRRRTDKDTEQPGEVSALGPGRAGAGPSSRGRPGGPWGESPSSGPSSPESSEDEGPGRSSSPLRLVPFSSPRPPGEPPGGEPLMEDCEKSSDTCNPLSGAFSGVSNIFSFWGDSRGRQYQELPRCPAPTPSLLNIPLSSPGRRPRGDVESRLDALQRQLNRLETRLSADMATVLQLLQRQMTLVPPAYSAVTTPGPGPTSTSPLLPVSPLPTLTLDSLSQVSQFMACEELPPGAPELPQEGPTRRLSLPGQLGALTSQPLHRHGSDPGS

[13] = molecular target: Multidrug resistance-associated protein 1 (Homo sapiens, UniProt P33527); assay: Induction of thermal stabilization of ABCC1 in human SW620/AD300 cells at 200 uM measured after 30 mins by thermal shift assay; format: cell-based; details: sw620/ad300, 0.5 h
Multidrug resistance-associated protein 1, sequence (P33527 whole entry): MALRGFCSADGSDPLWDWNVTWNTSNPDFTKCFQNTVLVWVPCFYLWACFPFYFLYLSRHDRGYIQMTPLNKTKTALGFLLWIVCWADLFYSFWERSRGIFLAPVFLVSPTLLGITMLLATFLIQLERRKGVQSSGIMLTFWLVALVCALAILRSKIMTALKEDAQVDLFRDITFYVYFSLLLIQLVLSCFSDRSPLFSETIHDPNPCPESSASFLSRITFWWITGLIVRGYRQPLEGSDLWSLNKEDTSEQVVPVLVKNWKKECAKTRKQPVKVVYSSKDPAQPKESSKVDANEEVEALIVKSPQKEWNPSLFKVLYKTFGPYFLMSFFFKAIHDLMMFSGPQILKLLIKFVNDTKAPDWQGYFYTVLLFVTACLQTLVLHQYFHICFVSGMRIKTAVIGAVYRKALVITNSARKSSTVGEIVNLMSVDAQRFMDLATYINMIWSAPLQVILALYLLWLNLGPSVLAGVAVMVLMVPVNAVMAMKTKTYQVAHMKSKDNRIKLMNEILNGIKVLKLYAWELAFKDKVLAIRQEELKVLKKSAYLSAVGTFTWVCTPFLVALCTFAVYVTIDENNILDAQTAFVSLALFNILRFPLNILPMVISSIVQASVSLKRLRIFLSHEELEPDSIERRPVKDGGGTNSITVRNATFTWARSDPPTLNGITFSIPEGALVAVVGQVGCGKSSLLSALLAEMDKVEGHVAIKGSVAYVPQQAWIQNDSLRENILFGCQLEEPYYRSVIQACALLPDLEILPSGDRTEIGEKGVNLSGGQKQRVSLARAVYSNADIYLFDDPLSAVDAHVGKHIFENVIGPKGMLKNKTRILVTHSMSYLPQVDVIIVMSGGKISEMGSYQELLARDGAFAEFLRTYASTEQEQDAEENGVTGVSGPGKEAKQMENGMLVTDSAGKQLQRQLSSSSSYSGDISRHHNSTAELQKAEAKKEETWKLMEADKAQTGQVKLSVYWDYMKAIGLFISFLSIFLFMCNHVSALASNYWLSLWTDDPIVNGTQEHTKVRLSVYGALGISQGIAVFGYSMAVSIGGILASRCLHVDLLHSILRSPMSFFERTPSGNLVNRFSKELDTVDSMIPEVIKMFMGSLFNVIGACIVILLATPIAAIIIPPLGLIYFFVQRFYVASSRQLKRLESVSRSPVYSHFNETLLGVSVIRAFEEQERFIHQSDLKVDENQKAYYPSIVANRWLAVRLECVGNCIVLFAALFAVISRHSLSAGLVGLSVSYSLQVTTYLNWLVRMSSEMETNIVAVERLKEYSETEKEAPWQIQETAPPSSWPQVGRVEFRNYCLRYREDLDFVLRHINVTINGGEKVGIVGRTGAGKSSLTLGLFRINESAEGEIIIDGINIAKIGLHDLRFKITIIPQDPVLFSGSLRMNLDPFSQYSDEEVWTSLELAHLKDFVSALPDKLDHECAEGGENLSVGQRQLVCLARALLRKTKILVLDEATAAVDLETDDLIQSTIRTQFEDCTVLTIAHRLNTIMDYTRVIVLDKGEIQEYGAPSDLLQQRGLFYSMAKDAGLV

[14] = Toxicity in Sprague-Dawley rat assessed as change in body weight at 250 to 1000 mg/kg, po measured for 14 days administered as single dose; format: organism-based; details: in vivo, 336 h, dose 250-1000 mg/kg, time 14 day
SW620/AD300 [15] = assay: Antitumor activity against human SW620/AD300 cells xenografted in male BALB/c nude mouse model assessed as reduction in tumor weight at 100 mg/kg/day, IG measured after 21 days in presence of paclitaxel; format: functional, organism-based; details: time 21.0 day
[16] = Toxicity in BALB/c nude mouse assessed as change in body weight at 100 mg/kg/day, IG measured after 21 days in presence of paclitaxel; format: organism-based; details: in vivo, po, 504 h, time 21 day
CD8-positive T cell = assay: Activation of immune response in human CD8-positive T cell assessed as increase in perforin level at 4 uM by ELISA method; format: functional, cell-based
[17] = molecular target: T1, ATP-dependent translocase ABCB1 (Homo sapiens, UniProt P08183); assay: Activation of ABCB1 ATPase activity (unknown origin) infected in insect cells at 18.5 uM incubated for 20 mins in presence of Mg-ATP by spectrophotometric analysis; format: cell-based; details: insect cell
T1 sequence (P08183 whole entry): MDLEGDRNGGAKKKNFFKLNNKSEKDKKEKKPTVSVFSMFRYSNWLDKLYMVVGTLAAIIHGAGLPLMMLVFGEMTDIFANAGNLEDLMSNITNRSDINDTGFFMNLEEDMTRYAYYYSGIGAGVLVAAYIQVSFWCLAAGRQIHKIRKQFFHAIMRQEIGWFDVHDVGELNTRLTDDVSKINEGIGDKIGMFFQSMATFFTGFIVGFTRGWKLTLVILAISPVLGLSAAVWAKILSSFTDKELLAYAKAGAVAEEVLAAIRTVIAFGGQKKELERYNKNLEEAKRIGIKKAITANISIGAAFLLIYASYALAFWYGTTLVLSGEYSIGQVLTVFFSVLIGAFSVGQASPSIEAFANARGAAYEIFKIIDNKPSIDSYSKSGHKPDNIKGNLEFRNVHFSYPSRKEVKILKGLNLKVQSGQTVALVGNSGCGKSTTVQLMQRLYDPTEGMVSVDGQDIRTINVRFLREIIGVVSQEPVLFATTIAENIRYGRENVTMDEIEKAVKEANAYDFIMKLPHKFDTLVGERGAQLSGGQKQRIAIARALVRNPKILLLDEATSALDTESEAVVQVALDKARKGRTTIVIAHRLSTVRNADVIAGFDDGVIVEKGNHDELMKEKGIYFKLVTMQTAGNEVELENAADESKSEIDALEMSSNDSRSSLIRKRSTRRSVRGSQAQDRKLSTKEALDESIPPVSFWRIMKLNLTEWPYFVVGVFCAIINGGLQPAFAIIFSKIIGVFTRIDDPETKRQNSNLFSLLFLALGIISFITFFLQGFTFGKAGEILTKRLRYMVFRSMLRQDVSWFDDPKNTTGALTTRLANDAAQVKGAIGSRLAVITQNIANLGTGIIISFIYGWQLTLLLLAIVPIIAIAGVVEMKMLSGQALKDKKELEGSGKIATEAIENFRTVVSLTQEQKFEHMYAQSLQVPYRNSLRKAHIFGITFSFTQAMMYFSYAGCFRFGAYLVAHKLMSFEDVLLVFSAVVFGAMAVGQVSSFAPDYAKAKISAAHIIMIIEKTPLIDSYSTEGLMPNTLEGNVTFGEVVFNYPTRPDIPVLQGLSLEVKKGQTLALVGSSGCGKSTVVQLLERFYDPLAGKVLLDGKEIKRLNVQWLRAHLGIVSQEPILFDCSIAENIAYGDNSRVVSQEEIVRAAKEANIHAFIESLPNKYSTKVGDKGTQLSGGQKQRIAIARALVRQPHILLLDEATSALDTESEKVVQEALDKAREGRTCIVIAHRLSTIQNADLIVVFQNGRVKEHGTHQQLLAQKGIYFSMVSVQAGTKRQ

CT26/TAXOL [18] = assay: Antitumor T-cell immune response in […] cells xenografted in BALB/c nude mouse model assessed as reduction in tumor weight at 100 mg/kg/day, IG in presence of anti-PD-1/paclitaxel measured after 14 days; format: functional, organism-based; details: time 14.0 day
CT26/TAXOL [19] = assay: Antitumor T-cell immune response in […] cells xenografted in BALB/c nude mouse model assessed as reduction in tumor volume at 100 mg/kg/day, IG in presence of anti-PD-1/paclitaxel measured after 14 days; format: functional, organism-based; details: time 14.0 day
CT26/TAXOL [20] = assay: Antitumor T-cell immune response in […] cells xenografted in BALB/c nude mouse model assessed as reduction in tumor growth at 100 mg/kg/day, IG measured after 14 days; format: functional, organism-based; details: time 14.0 day
CT26/TAXOL [21] = assay: Antitumor T-cell immune response in […] cells xenografted in BALB/c nude mouse model assessed as increase in CD8+ T-cell infiltration at 100 mg/kg/day, IG in presence of anti-PD-1/paclitaxel measured after 14 days by immunofluorescence staining based analysis; format: functional, organism-based; details: time 14.0 day
[22] = Toxicity in BALB/c nude mouse xenografted with […] CT26/TAXOL cells assessed as effect on heart at 100 mg/kg/day, IG measured after 14 days by H and E staining based analysis; format: organism-based; details: in vivo, po, 336 h, time 14 day
[23] = Toxicity in BALB/c nude mouse xenografted with […] CT26/TAXOL cells assessed as effect on brain at 100 mg/kg/day, IG measured after 14 days by H and E staining based analysis; format: organism-based; details: in vivo, po, 336 h, time 14 day
[24] = Toxicity in BALB/c nude mouse xenografted with […] CT26/TAXOL cells assessed as effect on brain at 100 mg/kg/day, IG in presence of paclitaxel measured after 14 days by H and E staining based analysis; format: organism-based; details: in vivo, po, 336 h, time 14 day
[25] = Toxicity in BALB/c nude mouse xenografted with […] CT26/TAXOL cells assessed as effect on lung at 100 mg/kg/day, IG in presence of paclitaxel/anti-PD-1 measured after 14 days by H and E staining based analysis; format: organism-based; details: in vivo, po, 336 h, time 14 day
[26] = Toxicity in BALB/c nude mouse xenografted with […] CT26/TAXOL cells assessed as effect on brain at 100 mg/kg/day, IG in presence of paclitaxel/anti-PD-1 measured after 14 days by H and E staining based analysis; format: organism-based; details: in vivo, po, 336 h, time 14 day
[27] = molecular target: T1, ATP-dependent translocase ABCB1; assay: Inhibition of ABCB1 in human SW620/AD300 cells assessed as decrease in [3H]-PTX efflux at 4 uM measured after 120 mins (Rvb <95%); format: cell-based; details: 2 h

O=c1c2c([nH]c3nc(SCc4nc5ccccc5s4)nn13)CCC2
viability at 4 µM (SW620/AD300 [1]): 95.6% | Ratio IC50 (SW-620 [2]): 1.06 | viability at 4 µM (SW-620 [3]): 92.4% | viability at 2 µM (SW620/AD300 [4]): 98.5% | Ratio IC50 (KB-C2): 443.74 | Ratio IC50 (KB 3-1): 1.05 | Ratio IC50 [5]: 10.9 | viability at 5 µM (HEK293 [6]): 94.3% | Ratio IC50 [7]: 28.25 | viability at 2 µM (HEK293 [8]): 98.2% | MRT last at 12 h [9]: 4.42 h | half-life [10]: 4.07 h | Cmax [11]: 504 ng/mL | AUC(0-t) at 12 h [12]: 5740 ng·h/mL | inhibition at 40 µM (hERG (KCNH2)): 32% | Activity [13]: Not_active | Activity [14]: Non-toxic | Activity (SW620/AD300 [15]): Active | Activity [16]: Non-toxic | Activity (CD8-positive T cell): Active | Activity [17]: Active | Activity (CT26/TAXOL [18]): Active | Activity (CT26/TAXOL [19]): Active | Activity (CT26/TAXOL [20]): Not active; Compound Showed Negligible Effect | Activity (CT26/TAXOL [21]): Active | Activity [22]: Non-toxic | Activity [23]: Non-toxic | Activity [24]: Non-toxic | Activity [25]: Non-toxic | Activity [26]: Non-toxic | inhibition at 4 µM [27]: 71%
